Test results: ChEMBL document CHEMBL3727349, “Thieno- and furo - pyrimidines and pyridines, useful as potassium channel inhibitors” (2013)

Molecular target: T1, Kir3.1/Kir3.4 (Rattus norvegicus, UniProt P48548+P63251)
T1 sequence (P63251 whole entry): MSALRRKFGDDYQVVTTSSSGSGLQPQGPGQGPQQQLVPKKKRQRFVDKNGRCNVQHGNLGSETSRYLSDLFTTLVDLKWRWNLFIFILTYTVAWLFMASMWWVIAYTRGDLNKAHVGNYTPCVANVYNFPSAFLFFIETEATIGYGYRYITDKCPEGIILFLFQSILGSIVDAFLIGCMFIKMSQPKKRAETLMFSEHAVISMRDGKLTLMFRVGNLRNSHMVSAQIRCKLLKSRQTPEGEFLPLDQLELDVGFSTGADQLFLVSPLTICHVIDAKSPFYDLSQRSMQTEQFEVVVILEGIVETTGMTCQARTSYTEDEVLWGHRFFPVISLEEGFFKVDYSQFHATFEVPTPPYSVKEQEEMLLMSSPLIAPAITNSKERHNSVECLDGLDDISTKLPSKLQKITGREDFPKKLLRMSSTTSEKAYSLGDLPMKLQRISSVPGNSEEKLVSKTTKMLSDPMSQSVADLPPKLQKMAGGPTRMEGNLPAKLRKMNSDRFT
T1 sequence (P48548 whole entry): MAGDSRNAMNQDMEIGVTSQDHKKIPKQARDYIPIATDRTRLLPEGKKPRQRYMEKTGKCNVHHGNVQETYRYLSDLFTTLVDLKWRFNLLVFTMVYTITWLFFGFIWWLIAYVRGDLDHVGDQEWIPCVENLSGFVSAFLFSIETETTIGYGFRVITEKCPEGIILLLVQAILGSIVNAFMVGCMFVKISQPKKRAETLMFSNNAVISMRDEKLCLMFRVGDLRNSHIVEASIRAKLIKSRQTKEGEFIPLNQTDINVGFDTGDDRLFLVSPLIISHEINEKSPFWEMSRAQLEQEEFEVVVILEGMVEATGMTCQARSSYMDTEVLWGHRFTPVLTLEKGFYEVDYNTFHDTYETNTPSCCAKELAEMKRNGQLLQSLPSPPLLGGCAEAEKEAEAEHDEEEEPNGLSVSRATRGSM
Experiment: Inhibition of rat Kir3.1/Kir3.4 expressed in HEK293 cells assessed as reduction in depolarizing voltage step-induced recombinant G-protein activated inward rectifier current by whole cell patch clamp assay
Assay type: cell-based

Structure (SMILES)	IC50 [µM]
NC(=O)C1CCN(CCOCC2CCN(c3ncnc4scc(-c5ccccc5)c34)CC2)C1 (configuration not stated)	< 0.5
CN1CCC(OCC2CCN(c3ncnc4scc(-c5ccccc5)c34)CC2)C1 (configuration not stated)	< 0.5
c1ccc(-c2csc3ncnc(N4CC5C(COCCN6CCCC6)C5C4)c23)cc1 (configuration not stated)	< 0.5
c1ccc(-c2csc3ncnc(N4CCC(COCCN5CC6CC5CO6)CC4)c23)cc1 (configuration not stated)	< 0.5
F[C@@H]1CCN(CCOCC2C3CN(c4ncnc5scc(-c6ccccc6)c45)CC23)C1 (some centres not stated)	< 0.5
NC(=O)[C@@H]1CCCN1CCOCC1C2CN(c3ncnc4scc(-c5ccccc5)c34)CC12 (some centres not stated)	< 0.5
F[C@H]1CCN(CCOCC2CCN(c3ncnc4scc(-c5ccccc5)c34)CC2)C1	< 0.5
CN(C)CCCOCC1CCN(c2ncnc3scc(-c4ccccc4)c23)CC1	< 0.5
c1ccc(-c2csc3ncnc(N4CCC(COCCN5CCOCC5)CC4)c23)cc1	< 0.5
CN(C)CCOCC1CCN(c2ncnc3scc(-c4ccccc4)c23)CC1	< 0.5
CN1CCCCC1CCOCC1CCN(c2ncnc3scc(-c4ccccc4)c23)CC1 (configuration not stated)	< 0.5
COc1ncccc1-c1csc2ncnc(N3CCC(COCCN4CCCC4)CC3)c12	< 0.5
Cc1sc2ncnc(N3CCC(COCCC4CCCN4C)CC3)c2c1C (configuration not stated)	< 0.5
CC(=O)NC1CCN(CCOCC2CCN(c3ncnc4scc(-c5ccccc5)c34)CC2)C1 (configuration not stated)	< 0.5
CN1CCCC1CCOCC1CCN(c2ncnc3scc(-c4cccc(F)c4)c23)CC1 (configuration not stated)	< 0.5
NC(=O)[C@H]1CCCN1CCOCC1C2CN(c3ncnc4scc(-c5ccccc5)c34)CC12 (some centres not stated)	< 0.5
CN1CCC(OCC2CCN(c3ncnc4scc(-c5ccccc5)c34)CC2)CC1	< 0.5
NC(=O)C1CCCN1CCOCC1CCN(c2ncnc3scc(-c4ccccc4)c23)CC1 (configuration not stated)	< 0.5
Fc1cccc(-c2csc3ncnc(N4CCC(COCCN5CCCC5)CC4)c23)c1	< 0.5
CCc1c(C)sc2ncnc(N3CCC(COCCN4CCCC4)CC3)c12	< 0.5
F[C@H]1CCN(CCOCC2C3CN(c4ncnc5scc(-c6ccccc6)c45)CC23)C1 (some centres not stated)	< 0.5
FC1(F)CCN(CCOCC2CCN(c3ncnc4scc(-c5ccccc5)c34)CC2)C1	< 0.5
CCc1c(C)sc2ncnc(N3CCC(COCCC4CCCCN4C)CC3)c12 (configuration not stated)	< 0.5
CN1CCCC1CCOCC1C2CN(c3ncnc4scc(-c5ccccc5)c34)CC12 (configuration not stated)	< 0.5
CC(C)c1cc2c(N3CCC(COCCN4CCOCC4)CC3)ncnc2s1	≤ 3
CN1CCCC1CCOCC1CCN(c2ncnc3scc(-c4ccccc4)c23)CC1 (configuration not stated)	< 0.5
Fc1ccc(-c2csc3ncnc(N4CCC(COCCN5CCCC5)CC4)c23)cc1	< 0.5
